Laboratory results: US9115151B2, “Substituted 2,10-dihydro-9-oxa-1,2,4A-triazaphenanthren-3-ones and uses thereof” (AbbVie Inc., priority 2012, dated 2015)

What was measured:
[1] = test system: CD3/CD28 induced IL-2 in human T-Blasts; assay: T-Blasts CD3/CD28 induced IL-2 assay; format: cell-based; details: read-out: CD3/CD28-stimulated IL2 in T-blasts EC50
Experimental: T-Blasts CD3/CD28 Induced IL-2 Assay
Human T-Blasts are generated using PHA following standard protocols. T-Blasts are freeze aliquoted and vials thawed as required. […] Seed 2×10^5/100 μL cell suspension per well in flat bottomed 96 well plate. Compound dilutions are prepared from 100% DMSO stocks. A total of 8 serial dilutions are made (1/3 in 100% DMSO). Compounds are diluted 1/50 in growth medium to prepare 4× stocks of each tested concentration. 50 μL from each 4× stock concentration is added to the 100 μL cell suspension and incubated for 30 minutes prior stimulus addition. A 4× stimulus stock is prepared using anti-CD3+anti-CD28 antibodies. Antibody mix is added to the cell/compounds suspension in 50 μL at 5 μg/mL final concentration. Compounds are tested in duplicates. Plates are transferred to 37° C./CO2 incubator for 24 hours. After incubation 130 μL of supernatant is collected for IL-2 determination while MTT toxicity analysis is performed on remaining cells/medium.

PKCα = target: T1, PKCα (Homo sapiens, UniProt P17252); assay: In vitro enzyme assay (time-resolved fluorescence kinase assay), PKCα, 100 μM ATP; format: biochemical; details: 100 μM ATP; read-out: PKCα enzyme IC50
T1 construct: His6; purchased Millipore; host or cells: baculovirus in Sf21 cells
Experimental: (§1) PKC kinase activity was assayed by time-resolved fluorescence in vitro kinase assay. Unless otherwise indicated, all reagents used for enzyme assays were obtained from Sigma. Specifically, 5 μL N- or C-terminal His6-tagged, recombinant, human PKC, expressed by baculovirus in Sf21 cells (Millipore) was mixed with 5 μL inhibitor (various concentrations, 5% final DMSO), 5 μL Bio-cdc peptide (Biotin-Ahx-[…], 2 μM final concentration, New England Peptide) and 5 μL of ATP (100 μM or 1000 μM final concentration) in 1× reaction buffer, 20 μL final volume.
(§2) Following a sixty minute incubation at room temperature, the reaction was quenched with 5 μL of 0.5 M EDTA pH 7.5.
(§3) Background counts from a minus enzyme control is subtracted from all data. Data (after background correction) are converted to percent activity by dividing by the signal obtained from PKC without drug sample.

PKCθ = target: T2, PKCθ (Homo sapiens, UniProt Q04759); assay: In vitro enzyme assay (time-resolved fluorescence kinase assay), PKCθ, 100 μM ATP; format: biochemical
T2 construct: His6; purchased Millipore; host or cells: baculovirus in Sf21 cells
Experimental: as §1, §2, §3

T2 sequence (Q04759 whole entry): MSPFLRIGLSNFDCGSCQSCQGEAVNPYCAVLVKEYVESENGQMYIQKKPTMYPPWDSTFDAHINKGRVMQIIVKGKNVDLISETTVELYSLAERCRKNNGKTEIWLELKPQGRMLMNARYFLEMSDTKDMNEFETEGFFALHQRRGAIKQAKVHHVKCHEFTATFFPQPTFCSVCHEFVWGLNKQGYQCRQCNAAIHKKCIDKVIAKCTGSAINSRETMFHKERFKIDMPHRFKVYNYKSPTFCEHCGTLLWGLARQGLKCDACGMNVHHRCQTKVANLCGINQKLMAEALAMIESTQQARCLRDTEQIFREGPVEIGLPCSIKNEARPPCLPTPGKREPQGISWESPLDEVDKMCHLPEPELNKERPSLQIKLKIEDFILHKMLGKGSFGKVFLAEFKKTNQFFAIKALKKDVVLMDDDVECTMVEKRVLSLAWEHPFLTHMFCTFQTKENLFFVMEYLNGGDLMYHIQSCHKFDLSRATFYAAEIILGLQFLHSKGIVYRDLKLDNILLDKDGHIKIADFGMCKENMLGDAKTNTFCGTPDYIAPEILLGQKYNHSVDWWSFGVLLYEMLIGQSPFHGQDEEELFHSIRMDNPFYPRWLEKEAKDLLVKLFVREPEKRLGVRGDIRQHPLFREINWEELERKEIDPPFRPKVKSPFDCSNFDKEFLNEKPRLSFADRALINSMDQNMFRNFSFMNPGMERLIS

| SMILES | EC50 [1] [nM] | IC50 (PKCα) [nM] | IC50 (PKCθ) [nM] |
| --- | --- | --- | --- |
| COc1ccc(-c2cc3c(cc2NC2CNC2)N2C(=NNC(=O)C2C)CO3)cc1 (racemic) [Example 30] | 250 to 1000 | 1000 to 10000 | < 250 |
| Cc1ccc(F)c(-c2cc3c(cc2NC2CNC2)N2C(=NNC(=O)C2C)CO3)c1 (racemic) [Example 31] | 250 to 1000 | 1000 to 10000 | < 250 |
| Cc1cc(-c2cc3c(cc2NC2CNC2)N2C(=NNC(=O)C2C)CO3)ccc1F (racemic) [Example 32] | 250 to 1000 | 1000 to 10000 | < 250 |
| Cc1cc(F)cc(-c2cc3c(cc2NC2CNC2)N2C(=NNC(=O)C2C)CO3)c1 (racemic) [Example 33] | 250 to 1000 | 1000 to 10000 | < 250 |
| COc1ccccc1-c1cc2c(cc1NC1CNC1)N1C(=NNC(=O)C1C)CO2 (racemic) [Example 34] | 250 to 1000 | 1000 to 10000 | < 250 |
| COc1ccc2cc(-c3cc4c(cc3NC3CNC3)N3C(=NNC(=O)C3C)CO4)ccc2c1 (racemic) [Example 35] | < 250 | 1000 to 10000 | < 250 |
| CC1C(=O)NN=C2COc3cc(-c4ccc5ccccc5c4)c(NC4CNC4)cc3N21 (racemic) [Example 36] | < 250 | 1000 to 10000 | < 250 |
| CC1C(=O)NN=C2COc3cc(-c4ccc5scnc5c4)c(NC4CNC4)cc3N21 (racemic) [Example 37] | < 250 | 1000 to 10000 | < 250 |
| CC1C(=O)NN=C2COc3cc(-c4ccc5ncsc5c4)c(NC4CNC4)cc3N21 (racemic) [Example 38] | 250 to 1000 | 1000 to 10000 | < 250 |
| CC1C(=O)NN=C2COc3cc(-c4cccc(C#N)c4)c(NC4CNC4)cc3N21 (racemic) [Example 39] | 250 to 1000 | 1000 to 10000 | < 250 |
| CC1C(=O)NN=C2COc3cc(-c4cccc(COC(C)(C)C)c4)c(NC4CNC4)cc3N21 (racemic) [Example 40] | 250 to 1000 | 1000 to 10000 | 250 to 1000 |
| CC1C(=O)NN=C2COc3cc(-c4ccc(C#N)cc4)c(NC4CNC4)cc3N21 (racemic) [Example 41] | 250 to 1000 | 1000 to 10000 | 250 to 1000 |
| CC1C(=O)NN=C2COc3cc(-c4ccccc4F)c(NC4CNC4)cc3N21 (racemic) [Example 42] | < 250 | 1000 to 10000 | < 250 |
| CC1C(=O)NN=C2COc3cc(-c4ccc(Cl)cc4Cl)c(NC4CNC4)cc3N21 (racemic) [Example 43] | < 250 | 1000 to 10000 | < 250 |
| CC1C(=O)NN=C2COc3cc(-c4ccccc4Cl)c(NC4CNC4)cc3N21 (racemic) [Example 44] | < 250 | 1000 to 10000 | < 250 |
| CC1C(=O)NN=C2COc3cc(-c4ccc(Cl)cc4)c(NC4CNC4)cc3N21 (racemic) [Example 45] | < 250 | 1000 to 10000 | < 250 |
| CC1C(=O)NN=C2COc3cc(-c4cccc(F)c4)c(NC4CNC4)cc3N21 (racemic) [Example 46] | < 250 | 1000 to 10000 | < 250 |
| CC1C(=O)NN=C2COc3cc(-c4ccc(F)cc4F)c(NC4CNC4)cc3N21 (racemic) [Example 47] | < 250 | 1000 to 10000 | < 250 |
| Cc1ccccc1-c1cc2c(cc1NC1CNC1)N1C(=NNC(=O)C1C)CO2 (racemic) [Example 48] | < 250 | 1000 to 10000 | < 250 |
| CC1C(=O)NN=C2COc3cc(C4CC4)c(NC4CNC4)cc3N21 (racemic) [Example 49] | < 250 | 1000 to 10000 | < 250 |
| CC1C(=O)NN=C2COc3cc(-c4ccc(F)cc4)c(NC4CNC4)cc3N21 (racemic) [Example 50] | < 250 | 1000 to 10000 | < 250 |
| CC1C(=O)NN=C2COc3cc(-c4ccccc4)c(NC4CNC4)cc3N21 (racemic) [Example 51] | 250 to 1000 | 1000 to 10000 | < 250 |
| CC1C(=O)NN=C2COc3cc(-c4cccc5ccccc45)c(NC4CNC4)cc3N21 (racemic) [Example 52] | 250 to 1000 | 1000 to 10000 | < 250 |
| C[C@@H]1C(=O)NN=C2COc3cc(-c4ccccc4)c(NC4CNC4)cc3N21 (single isomer, unassigned) [Example 1-1, trifluoroacetic acid] | < 250 | 1000 to 10000 | < 250 |
| C[C@H]1C(=O)NN=C2COc3cc(-c4ccccc4)c(NC4CNC4)cc3N21 (single isomer, unassigned) [Example 1-2, trifluoroacetic acid] | 1000 to 10000 | 1000 to 10000 | 250 to 1000 |
| Cc1cc2c(cc1NC1CNC1)N1C(=NNC(=O)[C@H]1C)CO2 (single isomer, unassigned) [Example 54-1, trifluoroacetic acid] | 250 to 1000 | 1000 to 10000 | < 250 |
| Cc1cc2c(cc1NC1CNC1)N1C(=NNC(=O)[C@@H]1C)CO2 (single isomer, unassigned) [Example 54-2, trifluoroacetic acid] | 1000 to 10000 | 1000 to 10000 | 250 to 1000 |

Further lines, results first:

| EC50 [1] [nM] | IC50 (PKCα) [nM] | IC50 (PKCθ) [nM] | SMILES |
| --- | --- | --- | --- |
| 1000 to 10000 | 1000 to 10000 | 250 to 1000 | C[C@H]1C(=O)NN=C2COc3cc(F)c(NC4CNC4)cc3N21 (single isomer, unassigned) [Example 56-1, trifluoroacetic acid] |
| < 250 | 1000 to 10000 | < 250 | C[C@@H]1C(=O)NN=C2COc3cc(F)c(NC4CNC4)cc3N21 (single isomer, unassigned) [Example 56-2, trifluoroacetic acid] |
| < 250 | 1000 to 10000 | < 250 | CC(C)c1cc2c(cc1NC1CNC1)N1C(=NNC(=O)[C@H]1C)CO2 (single isomer, unassigned) [Example 57-1, trifluoroacetic acid] |
| 1000 to 10000 | 1000 to 10000 | 250 to 1000 | CC(C)c1cc2c(cc1NC1CNC1)N1C(=NNC(=O)[C@@H]1C)CO2 (single isomer, unassigned) [Example 57-2, trifluoroacetic acid] |
| < 250 | 1000 to 10000 | < 250 | C[C@@H]1C(=O)NN=C2COc3cc(C4CC4)c(NC4CNC4)cc3N21 (single isomer, unassigned) [Example 64-1, trifluoroacetic acid] |
| 1000 to 10000 | 1000 to 10000 | 250 to 1000 | C[C@H]1C(=O)NN=C2COc3cc(C4CC4)c(NC4CNC4)cc3N21 (single isomer, unassigned) [Example 64-2, trifluoroacetic acid] |
| < 250 | 1000 to 10000 | < 250 | CC(C)c1cc2c(cc1OC1CNC1)N1C(=NNC(=O)[C@H]1C)CO2 (single isomer, unassigned) [Example 96, trifluoroacetic acid] |
| < 250 | 1000 to 10000 | < 250 | C[C@@H]1C(=O)NN=C2COc3ccc([C@H]4CCN[C@H](Cc5ccccc5)C4)cc3N21 (single isomer, unassigned) [Example 109-1, trifluoroacetic acid] |
| < 250 | 1000 to 10000 | < 250 | C[C@@H]1C(=O)NN=C2COc3ccc([C@@H]4CCN[C@H](Cc5ccccc5)C4)cc3N21 (single isomer, unassigned) [Example 109-2, trifluoroacetic acid] |
| 250 to 1000 | 1000 to 10000 | < 250 | CC(C)c1cc2c(cc1OC1(C)CNC1)N1C(=NNC(=O)[C@@H]1C)CO2 (single isomer, unassigned) [Example 121-1, trifluoroacetic acid] |
| 1000 to 10000 | 1000 to 10000 | 250 to 1000 | CC(C)c1cc2c(cc1OC1(C)CNC1)N1C(=NNC(=O)[C@H]1C)CO2 (single isomer, unassigned) [Example 121-2, trifluoroacetic acid] |
| < 250 | 250 to 1000 | < 250 | C[C@@H]1C(=O)NN=C2COc3cc(C(F)(F)F)c([C@@H](C)C4(C)CNC4)cc3N21 (single isomer, unassigned) [Example 147-1, trifluoroacetic acid] |
| 1000 to 10000 | 1000 to 10000 | < 250 | C[C@H]1C(=O)NN=C2COc3cc(-c4ccccc4F)c(N(C)[C@@]4(C)CCN(C)C4)cc3N21 (single isomer, unassigned) [Example 198-1] |
| 1000 to 10000 | 1000 to 10000 | < 250 | C[C@H]1C(=O)NN=C2COc3cc(-c4ccccc4F)c(N(C)[C@]4(C)CCN(C)C4)cc3N21 (single isomer, unassigned) [Example 198-2] |
